Five compounds from article PMC11252457 (Acta Pharmaceutica Sinica. B, 2024) can be followed below.

One series relates to WT HIV-1 (IIIB). Description: microbe, parasite or virus in culture. In kind it is cell-based. As to conditions: for EC50: Human immunodeficiency virus 1, IIIB, MT4, read-out: EC50 IIIB; for SI IIIB: ratio of CC50/EC50, IIIB.
Series [1] relates to HIV-1 RES056 (K103N/Y181C). Nature of the series: microbe, parasite or virus in culture. It is filed as cell-based. As to conditions: for EC50: Human immunodeficiency virus 1, MT4, read-out: EC50 RES056; for SI RES056: ratio of CC50/EC50, RES056.
A short description of series [2]: Cytotoxicity in mock-infected MT-4 cells. As to conditions: human.
The test system of series [3] is HIV-1 mutant strain Y181C. Nature of the series: microbe, parasite or virus in culture. As to conditions: Human immunodeficiency virus 1, MT4, read-out: EC50 Y181C. It is filed as cell-based.
The test system of series [4] is HIV-1 mutant strain E138K. Nature of the series: microbe, parasite or virus in culture. It is filed as cell-based. As to conditions: Human immunodeficiency virus 1, MT4, read-out: EC50 E138K.
The test system of series [5] is HIV-1 mutant strain L100I. Description: microbe, parasite or virus in culture. As to conditions: Human immunodeficiency virus 1, MT4, read-out: EC50 L100I. In kind it is cell-based.
The subject of series [6] is HIV-1 double mutant strain F227L/V106A. Description: microbe, parasite or virus in culture. It is filed as cell-based. As to conditions: Human immunodeficiency virus 1, MT4, read-out: EC50 F227L/V106A.
Series [7] concerns HIV-1 mutant strain K103N. Description: microbe, parasite or virus in culture. It is filed as cell-based. As to conditions: Human immunodeficiency virus 1, MT4, read-out: EC50 K103N.
The subject of series [8] is HIV-1 mutant strain Y188L. Description: microbe, parasite or virus in culture. In kind it is cell-based. As to conditions: Human immunodeficiency virus 1, MT4, read-out: EC50 Y188L.

As for `CCCCOP(=O)(OCCCC)c1ccc(CN2CCC(Nc3nc(Oc4c(C)cc(C#N)cc4C)c4sccc4n3)CC2)cc1` [9d, Dibutyl (4-((4-((4-(4-cyano-2,6-dimethylphenoxy)thieno[3,2-d]pyrimidin-2-yl)amino)piperidin-1-yl)methyl)phenyl)phosphonate], the EC50 in the series with WT HIV-1 (IIIB) is 0.125 ± 0.039 µM; in series [1], 6.5 ± 0.483 µM; in [3], 0.311 ± 0.0504 µM; in [4] it was 0.241 ± 0.0349 µM; in series [5], 0.23 ± 0.054 µM; in series [6] it was 0.248 ± 0.0373 µM. Besides, the EC50 is 0.196 ± 0.0136 µM in series [7] and 0.24 ± 0.0583 µM in [8]. The “SI IIIB” value with WT HIV-1 (IIIB) is on record as 62. The “SI RES056” value in series [1] worked out at 1. Moreover, the midpoint of cytotoxicity in series [2], the CC50 at 5 days, lay at 7.8 ± 1.53 µM.
For the compound `Cc1cc(/C=C/C#N)cc(C)c1Oc1nc(NC2CCN(Cc3ccc(P(=O)(OCC(C)C)OCC(C)C)cc3)CC2)nc2ccsc12` [15h, Diisobutyl (E)-(4-((4-((4-(4-(2-cyanovinyl)-2,6-dimethylphenoxy)thieno[3,2-d]pyrimidin-2-yl)amino)piperidin-1-yl)methyl)phenyl)phosphonate], the EC50 in the series with WT HIV-1 (IIIB) was found to be 0.151 ± 0.0484 µM; in series [1], 2.2 ± 0.36 µM; in [3] it was 1.12 ± 0.106 µM; in series [4], 0.758 ± 0.249 µM; in series [5], 0.712 ± 0.158 µM; in series [6], 0.886 ± 0.167 µM. The EC50 in series [7] was determined as 0.239 ± 0.027 µM; in series [8], 0.86 ± 0.218 µM. In addition, the “SI IIIB” value in the series with WT HIV-1 (IIIB) is recorded as 109. In addition, the “SI RES056” value in [1] was found to be 8. The same compound returned a CC50 at 5 days in series [2] of 16.5 ± 2.05 µM.
For the compound `Cc1cc(C#N)cc(C)c1Oc1nc(NC2CCN(Cc3ccc(P(=O)(OCC(F)(F)F)OCC(F)(F)F)cc3)CC2)nc2ccsc12` [9e, Bis(2,2,2-trifluoroethyl) (4-((4-((4-(4-cyano-2,6-dimethylphenoxy)thieno[3,2-d]pyrimidin-2-yl)amino)piperidin-1-yl)methyl)phenyl)phosphonate], the EC50 with WT HIV-1 (IIIB) came to 0.033 ± 0.00763 µM; in [1], 1.29 ± 0.12 µM; in series [3], 0.248 ± 0.0604 µM; in [4] it was 0.137 ± 0.083 µM; in series [5], 0.165 ± 0.111 µM; in series [6], 0.0651 ± 0.0195 µM. Further, the EC50 in [7] was 0.0458 ± 0.00461 µM; in [8] it was 0.142 ± 0.0633 µM. The “SI IIIB” value in the series with WT HIV-1 (IIIB) is 527. Also, the “SI RES056” value in [1] was 13. In [2], this compound gave a CC50 at 5 days of 17.4 ± 2.85 µM.
On to `Cc1cc(/C=C/C#N)cc(C)c1Oc1nc(NC2CCN(Cc3ccc(P(=O)(OC(C)C)OC(C)C)cc3)CC2)nc2ccsc12` [15f, Diisopropyl (E)-(4-((4-((4-(4-(2-cyanovinyl)-2,6-dimethylphenoxy)thieno[3,2-d]pyrimidin-2-yl)amino)piperidin-1-yl)methyl)phenyl)phosphonate], for which the EC50 stood at 0.0292 ± 0.00912 µM in the series on WT HIV-1 (IIIB); 0.401 ± 0.321 µM in [1]; 0.156 ± 0.059 µM in series [3]; 0.162 ± 0.0358 µM in [4]; 0.0561 ± 0.0132 µM in [5]; 0.0793 ± 0.013 µM in series [6]. Further, the EC50 in [7] worked out at 0.041 ± 0.00763 µM; in series [8], 0.195 ± 0.0323 µM. In addition, the “SI IIIB” value with WT HIV-1 (IIIB) turned out to be 152. Also, in [1], the “SI RES056” value came to 11. The CC50 at 5 days in [2] turned out to be 4.45 ± 0.57 µM.
Take `Cc1cc(C#N)cc(C)c1Oc1nc(NC2CCN(Cc3ccc(P(=O)(O)O)cc3)CC2)nc2ccsc12` [compound 10, (4-((4-((4-(4-Cyano-2,6-dimethylphenoxy)thieno[3,2-d]pyrimidin-2-yl)amino)piperidin-1-yl)methyl)phenyl)phosphonic acid]: the EC50 in the series with WT HIV-1 (IIIB) is 16.5 µM; in [1] it was more than 227 µM; in series [3], more than 227 µM; in [4], 160 µM; in [5], more than 227 µM; in series [6] it was more than 227 µM. The EC50 in [7] is 147 µM; in series [8], more than 227 µM. Also, the “SI IIIB” value with WT HIV-1 (IIIB) was more than 14. The “SI RES056” value in series [1] was less than 1. Besides, in series [2], the CC50 at 5 days is more than 227 µM.

As usually defined, the CC50 is the concentration giving 50% cytotoxicity. Low values mean harm at low concentration, high ones better tolerance by the cells.
